Assay results reported in patent US12037345B2, “Heterobicyclic compounds for inhibiting the activity of SHP2” (TAIHO PHARMACEUTICAL CO., LTD., priority 2018, dated 2024).
Like-named read-outs stand apart in the source and are kept apart here.

Columns and labels:
SHP2 = SHP2 (Homo sapiens (Human), UniProt Q06124); assay: SHP2 Biochemical Assay (DiFMUP conversion, pIRS1-activated)
Outline: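 Rates of DiFMU formation were followed 30 min at ex 360/em 450 nm, with 50 μM DiFMUP, 10 pM SHP2 and pIRS1 peptide ([…]) after 30 min compound pre-incubation at pH 7.0 Bis-Tris propane. Four-parameter logistic IC50s in singlicate; repeat runs averaged.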

[1] = test system: pERK (phospho-p44/42 ERK) in HCC827 cells; assay: Cellular pERK Inhibition Assay, Method A (In-Cell Western); type: cell-based
Outline: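 In-Cell Western: phospho-p44/42 ERK antibody staining of formalin-fixed HCC827 cells after compound exposure (serum-free medium, 0.2% DMSO, 37 °C, indicated time). Readings minus cell-free blanks were normalised to DMSO-treated wells. Relative IC50 came from four-parameter logistic fits of quadruplicates, given as single or mean values.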

[2] = Table 19, head prints unit as "-M"
[3] = Homo sapiens, Table 19, head prints unit as "-M", read-out: pERK (IC50) Method A
[4] = Table 19, head prints unit as "-M", read-out: pERK (IC50) Method A
[5] = Homo sapiens, Table 20, read-out: pERK (IC50, μM) Method A

SHP2, sequence (Q06124 whole entry): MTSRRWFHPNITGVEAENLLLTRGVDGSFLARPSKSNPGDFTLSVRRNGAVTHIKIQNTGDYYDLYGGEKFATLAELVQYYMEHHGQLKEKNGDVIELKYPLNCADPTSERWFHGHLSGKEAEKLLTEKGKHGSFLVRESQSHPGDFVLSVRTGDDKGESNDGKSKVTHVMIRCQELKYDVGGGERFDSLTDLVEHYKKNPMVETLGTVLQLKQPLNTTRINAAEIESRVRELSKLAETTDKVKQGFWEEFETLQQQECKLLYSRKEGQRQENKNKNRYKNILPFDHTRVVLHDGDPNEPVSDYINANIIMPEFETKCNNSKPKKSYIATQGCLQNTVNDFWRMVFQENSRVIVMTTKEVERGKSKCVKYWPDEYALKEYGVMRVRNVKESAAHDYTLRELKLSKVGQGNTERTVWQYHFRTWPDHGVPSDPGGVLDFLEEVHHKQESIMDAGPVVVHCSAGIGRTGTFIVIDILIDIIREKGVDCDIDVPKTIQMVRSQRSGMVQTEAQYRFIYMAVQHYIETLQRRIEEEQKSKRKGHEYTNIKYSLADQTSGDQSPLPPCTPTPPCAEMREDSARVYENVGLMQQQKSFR

| SMILES | IC50 (SHP2; [2]) | IC50 [1, 3] | IC50 [1, 4] | IC50 (SHP2; Table 20) | IC50 [1, 5] |
| --- | --- | --- | --- | --- | --- |
| CN[C@@H]1C[C@@H]2CC[C@H]1N2c1nc2[nH]cc(-c3ccc4nn(C)c(Cl)c4c3F)c2c(=O)n1C [Example 106, 5-(3-chloro-4-fluoro-2-methyl-2H-indazol-5-yl)-3-methyl-2-((1R,2R,4S)-2-(methylamino)-7-azabicyclo[2.2.1]heptan-7-yl)-3,7-dihydro-4H-pyrrolo[2,3-d]pyrimidin-4-one] | 5 nM | 0.1 µM |  |  |  |
| CN[C@@H]1C[C@@H]2CC[C@H]1N2c1nc2[nH]nc(-c3ccc4nc(C)sc4c3Cl)c2c(=O)n1C [Example 124, 3-(7-chloro-2-methylbenzo[d]thiazol-6-yl)-5-methyl-6-((1R,2R,4S)-2-(methylamino)-7-azabicyclo[2.2.1]heptan-7-yl)-1,5-dihydro-4H-pyrazolo[3,4-d]pyrimidin-4-one] | 19 nM | 0.43 µM |  |  |  |
| Cn1cc2c(Cl)c(-c3c[nH]c4nc(N5C[C@H]6C[C@@H](C5)[C@H]6N)n(C)c(=O)c34)ccc2n1 [Example 34, 2-(endo-6-amino-3-azabicyclo[3.1.1]heptan-3-yl)-5-(4-chloro-2-methyl-2H-indazol-5-yl)-3-methyl-3,7-dihydro-4H-pyrrolo[2,3-d]pyrimidin-4-one] | 160 nM | 2.3 µM |  |  |  |
| Cn1c(N2C3CCC2CC(N)C3)nc2[nH]cc(-c3cc4nnn(C)c4c(F)c3F)c2c1=O (stereo not drawn) [Example 71, 2-(endo-3-amino-8-azabicyclo[3.2.1]octan-8-yl)-5-(6,7-difluoro-1-methyl-1H-benzo[d][1,2,3]triazol-5-yl)-3-methyl-3,7-dihydro-4H-pyrrolo[2,3-d]pyrimidin-4-one] | 260 nM |  | 5 µM |  |  |
| CCn1cc2c(Cl)c(-c3c[nH]c4nc(N5[C@H]6CC[C@@H]5[C@H](NC)C6)n(C)c(=O)c34)ccc2n1 [Example 98, 5-(4-chloro-2-ethyl-2H-indazol-5-yl)-3-methyl-2-((1R,2R,4S)-2-(methylamino)-7-azabicyclo[2.2.1]heptan-7-yl)-3,7-dihydro-4H-pyrrolo[2,3-d]pyrimidin-4-one] | 10 nM | 0.19 µM |  |  |  |
| Cn1cc2c(Cl)c(-c3c[nH]c4nc(N5CCC(N)(CO)C5)n(C)c(=O)c34)ccc2n1 (stereo not drawn) [Example 58, 2-(3-amino-3-(hydroxymethyl)pyrrolidin-1-yl)-5-(4-chloro-2-methyl-2H-indazol-5-yl)-3-methyl-3,7-dihydro-4H-pyrrolo[2,3-d]pyrimidin-4-one] | 99 nM | > 10 µM |  |  |  |
| Cn1cc2c(Cl)c(-c3c[nH]c4nc(N5C[C@@H]6C[C@H]5CN6)n(C)c(=O)c34)ccc2n1 [Example 21, 2-((1S,4S)-2,5-diazabicyclo[2.2.1]heptan-2-yl)-5-(4-chloro-2-methyl-2H-indazol-5-yl)-3-methyl-3,7-dihydro-4H-pyrrolo[2,3-d]pyrimidin-4-one] | 11 nM | 0.32 µM |  |  |  |
| Cn1cc2c(Cl)c(-c3c[nH]c4nc(N5C6CNCC5COC6)n(C)c(=O)c34)ccc2n1 [Example 85, 2-(3-oxa-7,9-diazabicyclo[3.3.1]nonan-9-yl)-5-(4-chloro-2-methyl-2H-indazol-5-yl)-3-methyl-3,7-dihydro-4H-pyrrolo[2,3-d]pyrimidin-4-one] | 13 nM | 0.64 µM |  |  |  |
| Cn1cc2c(Cl)c(-c3c[nH]c4nc(N5CC[C@@](C)(N)C5)n(C)c(=O)c34)ccc2n1 [Example 55, (R)-2-(3-amino-3-methylpyrrolidin-1-yl)-5-(4-chloro-2-methyl-2H-indazol-5-yl)-3-methyl-3,7-dihydro-4H-pyrrolo[2,3-d]pyrimidin-4-one] | 74 nM | 1.1 µM |  |  |  |
| Cn1cc2c(Cl)c(-c3c[nH]c4nc(N5[C@@H]6CC[C@H]5[C@@H](N)C6)n(C)c(=O)c34)ccc2n1 [Example 46, 2-((1S,2S,4R)-2-amino-7-azabicyclo[2.2.1]heptan-7-yl)-5-(4-chloro-2-methyl-2H-indazol-5-yl)-3-methyl-3,7-dihydro-4H-pyrrolo[2,3-d]pyrimidin-4-one] | 33 nM | 0.42 µM |  |  |  |
| CN[C@H]1C[C@H]2CC[C@@H]1N2c1nc2[nH]cc(-c3ccc4nn(C)cc4c3Cl)c2c(=O)n1C [Example 165, 5-(4-chloro-2-methyl-2H-indazol-5-yl)-3-methyl-2-((1S,2S,4R)-2-(methylamino)-7-azabicyclo[2.2.1]heptan-7-yl)-3,7-dihydro-4H-pyrrolo[2,3-d]pyrimidin-4-one] |  |  |  | 84 nM | 1.4 µM |
| CN(C)C(=O)Cc1nc2ccc(-c3c[nH]c4nc(N5C6CCCC5CNC6)n(C)c(=O)c34)c(Cl)c2s1 [Example 84, 2-(6-(2-(3,9-diazabicyclo[3.3.1]nonan-9-yl)-3-methyl-4-oxo-4,7-dihydro-3H-pyrrolo[2,3-d]pyrimidin-5-yl)-7-chlorobenzo[d]thiazol-2-yl)-N,N-dimethylacetamide] | 18 nM | 0.55 µM |  |  |  |
| Cn1cc2c(Cl)c(-c3c[nH]c4nc(N5[C@@H]6CCC[C@H]5C[C@H](N)C6)n(C)c(=O)c34)ccc2n1 [Example 36, 2-(exo-3-amino-9-azabicyclo[3.3.1]nonan-9-yl)-5-(4-chloro-2-methyl-2H-indazol-5-yl)-3-methyl-3,7-dihydro-4H-pyrrolo[2,3-d]pyrimidin-4-one] | 5.5 nM | 0.35 µM |  |  |  |
| Cn1cc2c(Cl)c(-c3c[nH]c4nc(N5[C@H]6CC[C@@H]5[C@@H](N)C6)n(C)c(=O)c34)ccc2n1 (racemic) [Example 164, 2-(rac-(1R,2S,4S)-2-amino-7-azabicyclo[2.2.1]heptan-7-yl)-5-(4-chloro-2-methyl-2H-indazol-5-yl)-3-methyl-3,7-dihydro-4H-pyrrolo[2,3-d]pyrimidin-4-one] |  |  |  | 170 nM | 6.3 µM |
| Cn1nc2ccc(-c3n[nH]c4nc(N5CC[C@H](N)[C@H](F)C5)n(C)c(=O)c34)c(Cl)c2c1Cl [Example 162, 6-((3R,4S)-4-amino-3-fluoropiperidin-1-yl)-3-(3,4-dichloro-2-methyl-2H-indazol-5-yl)-5-methyl-1,5-dihydro-1H-pyrazolo[3,4-d]pyrimidin-4-one] |  |  |  | 42 nM | 0.81 µM |
| C[C@H]1CNCCN1c1nc2[nH]cc(-c3ccc4nn(C)cc4c3Cl)c2c(=O)n1C [Example 48, (S)-5-(4-chloro-2-methyl-2H-indazol-5-yl)-3-methyl-2-(2-methylpiperazin-1-yl)-3,7-dihydro-4H-pyrrolo[2,3-d]pyrimidin-4-one] | 85 nM | 1 µM |  |  |  |
| CCc1nc2ccc(-c3c[nH]c4nc(N5[C@@H]6CC[C@H]5C[C@@H](N)C6)n(C)c(=O)c34)c(Cl)c2s1 [Example 6, 2-(endo-3-amino-8-azabicyclo[3.2.1]octan-8-yl)-5-(7-chloro-2-ethylbenzo[d]thiazol-6-yl)-3-methyl-3,7-dihydro-4H-pyrrolo[2,3-d]pyrimidin-4-one] | 6.5 nM | 0.58 µM |  |  |  |
| Cc1nc2ccc(-c3n[nH]c4nc(N5[C@H]6CC[C@@H]5[C@H](N)C6)n(C)c(=O)c34)c(Cl)c2s1 [Example 113, 6-((1R,2R,4S)-2-amino-7-azabicyclo[2.2.1]heptan-7-yl)-3-(7-chloro-2-methylbenzo[d]thiazol-6-yl)-5-methyl-1,5-dihydro-4H-pyrazolo[3,4-d]pyrimidin-4-one] | 4.5 nM | 0.078 µM |  |  |  |
| C[C@@H]1CNCCN1c1nc2[nH]cc(-c3ccc4nn(C)cc4c3Cl)c2c(=O)n1C [Example 47, (R)-5-(4-chloro-2-methyl-2H-indazol-5-yl)-3-methyl-2-(2-methylpiperazin-1-yl)-3,7-dihydro-4H-pyrrolo[2,3-d]pyrimidin-4-one] | 32 nM | 0.38 µM |  |  |  |
| COc1c(-c2c[nH]c3nc(N4C5CCC4CC(N)C5)n(C)c(=O)c23)ccc2nn(C)cc12 (stereo not drawn) [Example 73, 2-(endo-3-amino-8-azabicyclo[3.2.1]octan-8-yl)-5-(4-methoxy-2-methyl-2H-indazol-5-yl)-3-methyl-3,7-dihydro-4H-pyrrolo[2,3-d]pyrimidin-4-one] | 870 nM |  | > 10 µM |  |  |
| CN[C@H]1[C@H]2CC[C@@H]1N(c1nc3[nH]cc(-c4ccc5nn(C)cc5c4Cl)c3c(=O)n1C)C2 (racemic) [Example 135, rac-5-(4-chloro-2-methyl-2H-indazol-5-yl)-3-methyl-2-((1S,4S,7S)-7-(methylamino)-2-azabicyclo[2.2.1]heptan-2-yl)-3,7-dihydro-4H-pyrrolo[2,3-d]pyrimidin-4-one] | 48 nM | 0.95 µM |  |  |  |
| Cn1nc2ccc(-c3c[nH]c4nc(N5C6CCCC5CNC6)n(C)c(=O)c34)c(F)c2c1Cl [Example 100, 2-(3,9-diazabicyclo[3.3.1]nonan-9-yl)-5-(3-chloro-4-fluoro-2-methyl-2H-indazol-5-yl)-3-methyl-3,7-dihydro-4H-pyrrolo[2,3-d]pyrimidin-4-one] | 6 nM | 0.095 µM |  |  |  |
| Cn1cc2c(Cl)c(-c3c[nH]c4nc(N5[C@H]6CC[C@@H]5[C@H](N)C6)n(C)c(=O)c34)ccc2n1 [Example 49, 2-((1R,2R,4S)-2-amino-7-azabicyclo[2.2.1]heptan-7-yl)-5-(4-chloro-2-methyl-2H-indazol-5-yl)-3-methyl-3,7-dihydro-4H-pyrrolo[2,3-d]pyrimidin-4-one] | 4.5 nM | 0.021 µM |  |  |  |
| Cn1nc2ccc(-c3c[nH]c4nc(N5CC6COCC(C5)N6)n(C)c(=O)c34)c(Cl)c2c1Cl [Example 80, 2-(3-oxa-7,9-diazabicyclo[3.3.1]nonan-7-yl)-5-(3,4-dichloro-2-methyl-2H-indazol-5-yl)-3-methyl-3,7-dihydro-4H-pyrrolo[2,3-d]pyrimidin-4-one] | 11 nM | 0.27 µM |  |  |  |
